Source: patent US20240197650A1, “Combination of Cinnamaldheyde and Eugenol with Antimycotic Activity” (priority 2021, published 2024)

What was measured:
Type in all cases: cell-based
C. albicans [1] = assay: Microdilution method MIC/MFC, C. albicans strains
Experimental: (§1) A total of eighteen strains belonging to Candida spp. (15 C. albicans, 2 C. glabrata and 1 C. lusitaniae) derived from a collection of vaginal strains isolated in CHROMAgar Candida (BD Italia SpA, Milan, Italy) were grown on Potato Dextrose Agar (Oxoid Thermofisher SpA, Milan, Italy) at 35° C. for 24 hours.
(§2) The antifungal activity of amphotericin B and of cinnamaldheyde and eugenol were tested with the microdilution method as reported by Bona et al. [Bona et al., Sensitivity of Candida albicans to essential oils: are they an alternative to antifungal agents? J Appl Microbiol. 2016 December, 121(6): 1530-1545] with small changes. All the 18 Candida spp strains were tested. For each isolated, the colonies deriving from cultures (24 hours) in PDA were diluted in saline up to a concentration of 2×10^3 CFU/ml (so obtaining a final concentration of 10 3CGU/ml). Cinnamaldehyde and eugenol were dissolved in DMSO (80% oil, 20% DMSO), then diluted in Sabouraud broth up to a concentration of 8% v/v (so obtaining a final concentration of 4% v/v). Then, in a 96-well microtiter plate ½ serial dilution of amphotericin B (range 32-0.032 μg/ml, for a final range of 16-0.016 μg/ml) and of the essential oils (range 8-0.004% v/v, for a final range of 4-0.002% v/v) were carried out. Each well was then injected with 100 μl of cell suspension. The negative control contained DMSO diluted in Sabouraud broth (at 2% v/v, for a final concentration of 1% v/v). […] Each experiment was carried out in duplicate. The Minimum Inhibitory Concentration (MIC) was determined as the concentration of the oils in the first well which is not cloudy. The Minimum Fungicidal Concentration (MFC) was determined as the lowest concentration of the oils, with the agar culture showing the complete absence of fungal growth. The determination of the amphotericin B MIC was carried out also according to the EUCAST guidelines (cutoff 1 μg/ml) [https://eucast.org/astoffungi/clinicalbreakpointsforantifungals], all the results being consistent.

C. albicans [2] = assay: Disk diffusion method, C. albicans strains
Experimental: as §1
(§3) Colonies were re-suspended in sterile saline at a density corresponding to #0.5 McFarland (opacity standard). #0.5 McF correspond to 1.4×10^6 colony forming units (CFU)/ml for C. albicans, 4.3×10^6 CFU/ml for C. glabrata and 3×10^6 CFU/ml for C. lusitaniae [Guinea J. et al., Rapid antifungal susceptibility determination for yeast isolates by use of Etest performed directly on blood samples from patients with fungemia, J Clin Microbiol. 2010 June, 48(6): 2205-12]. Then, the sensitivity test vs the two oils has been performed. The disk diffusion method was carried out as follows: for each tested strain, 4 plates of Potato Dextrose Agar (PDA) were seeded in 3 directions to produce a confluent growth, by sterile swab soaked in the cell suspension. Sorbent paper disks (Oxoid Thermofisher SpA, Milan, Italy) 6.0 mm diameter were placed on the agar surface and added with 10 μl of each essential oil. Disks soaked with 10 μg amphotericin B were used as positive control. Also disks of chlortrimazole (from 10 μg to 40 μg) were used, but the inhibition rings could not be clearly read due to the formation of a re-growth ring. Disks soaked with 10 μl pure dimethylsulphoxide (DMSO, Sigma-Aldrich, St. Louis, MO, USA) were used as negative control. The plates were incubated at 35° C. for 24 hours. All the experiments were carried out in duplicate. The inhibiting effect of the oils were considered to be effective when the inhibition ring was equal or greater than that caused by amphotericin B. For amphotericin B, an inhibition zone (IZ)≥15 mm was considered as “sensitivity”, from 10 to 14 mm as “intermediate sensitivity” and <10 mm as “resistance” [Kauser et al., Agreement of Direct Antifungal Susceptibility Testing from Positive Blood Culture Bottles with Conventional Method for Candida Species, J Clin Microbiol. 2016 February, 54(2):343-34].

C. lusitaniae [3] = assay: Microdilution method MIC/MFC, C. lusitaniae strain; conditions: C. lusitaniae 1
Experimental: as §1, §2

C. lusitaniae [4] = assay: Disk diffusion method, C. lusitaniae strain; conditions: C. lusitaniae 1
Experimental: as §1
Colonies were re-suspended in sterile saline at a density corresponding to #0.5 McFarland (opacity standard). #0.5 McF correspond to 1.4×10^6 colony forming units (CFU)/ml for C. albicans, 4.3×10^6 CFU/ml for C. glabrata and 3×10^6 CFU/ml for C. lusitaniae [Guinea J. et al., Rapid antifungal susceptibility determination for yeast isolates by use of Etest performed directly on blood samples from patients with fungemia, J Clin Microbiol. 2010 June, 48(6): 2205-12]. Then, the sensitivity test vs the two oils has been performed. The disk diffusion method was carried out as follows: for each tested strain, 4 plates of Potato Dextrose Agar (PDA) were seeded in 3 directions to produce a confluent growth, by sterile swab soaked in the cell suspension. Sorbent paper disks (Oxoid Thermofisher SpA, Milan, Italy) 6.0 mm diameter were placed on the agar surface and added with 10 μl of each essential oil. Disks soaked with 10 μg amphotericin B were used as positive control. Also disks of chlortrimazole (from 10 μg to 40 μg) were used, but the inhibition rings could not be clearly read due to the formation of a re-growth ring. Disks soaked with 10 μl pure dimethylsulphoxide (DMSO, Sigma-Aldrich, St. Louis, MO, USA) were used as negative control. The plates were incubated at 35° C. for 24 hours. All the experiments were carried out in duplicate. […]

Candida spp. [5] = assay: Microdilution method MIC/MFC, 18 Candida spp. strains (distribution); conditions: 18 strains
Experimental: as §1, §2

Candida spp. [6] = assay: Disk diffusion method, 18 Candida spp. strains (distribution)
Experimental: as §1, §3

C. glabrata = assay: Microdilution method MIC/MFC, C. glabrata strains
Experimental: as §1, §2

[7] = 18 strains, disk 10 μl oil or 10 μg amphotericin B, 35° C. 24 hours
[8] = disks soaked with the oils separately

**Q.** Which results are given for C=CCc1ccc(O)c(OC)c1 [Eugenol, eugenol]?
**A.** MFC (C. albicans [1]; C. albicans 1): 0.032 % v/v; MIC (C. albicans [1]; C. albicans 1): 0.032 % v/v; MFC (C. albicans [1]; C. albicans 2): 0.032 % v/v; MIC (C. albicans [1]; C. albicans 2): 0.032 % v/v; MFC (C. albicans [1]; C. albicans 3): 0.032 % v/v; MIC (C. albicans [1]; C. albicans 3): 0.016 % v/v; MFC (C. albicans [1]; C. albicans 4): 0.064 % v/v; MIC (C. albicans [1]; C. albicans 4): 0.064 % v/v; MFC (C. albicans [1]; C. albicans 5): 0.032 % v/v; MIC (C. albicans [1]; C. albicans 5): 0.008 % v/v; MFC (C. albicans [1]; C. albicans 6): 0.032 % v/v; MIC (C. albicans [1]; C. albicans 6): 0.032 % v/v; MFC (C. albicans [1]; C. albicans 7): 0.064 % v/v; MIC (C. albicans [1]; C. albicans 7): 0.032 % v/v; MFC (C. albicans [1]; C. albicans 8): 0.032 % v/v; MIC (C. albicans [1]; C. albicans 8): 0.032 % v/v; MFC (C. albicans [1]; C. albicans 9): 0.125 % v/v; MIC (C. albicans [1]; C. albicans 9): 0.125 % v/v; MFC (C. albicans [1]; C. albicans 10): 0.016 % v/v; MIC (C. albicans [1]; C. albicans 10): 0.016 % v/v; MFC (C. albicans [1]; C. albicans 11): 0.125 % v/v; MIC (C. albicans [1]; C. albicans 11): 0.064 % v/v; MFC (C. albicans [1]; C. albicans 12): 0.064 % v/v; MIC (C. albicans [1]; C. albicans 12): 0.016 % v/v; MFC (C. albicans [1]; C. albicans 13): 0.125 % v/v; MIC (C. albicans [1]; C. albicans 13): 0.064 % v/v; MFC (C. albicans [1]; C. albicans 14): 0.125 % v/v; MIC (C. albicans [1]; C. albicans 14): 0.032 % v/v; MFC (C. albicans [1]; C. albicans 15): 0.064 % v/v; MIC (C. albicans [1]; C. albicans 15): 0.032 % v/v; Diameters of the inhibition rings (including 6.0 mm of the disk) (C. albicans [2]; C. albicans 1): 35.0 mm; Diameters of the inhibition rings (including 6.0 mm of the disk) (C. albicans [2]; C. albicans 2): 35.0 mm; Diameters of the inhibition rings (including 6.0 mm of the disk) (C. albicans [2]; C. albicans 3): 33.0 mm; Diameters of the inhibition rings (including 6.0 mm of the disk) (C. albicans [2]; C. albicans 4): 35.0 mm; Diameters of the inhibition rings (including 6.0 mm of the disk) (C. albicans [2]; C. albicans 5): 35.0 mm; Diameters of the inhibition rings (including 6.0 mm of the disk) (C. albicans [2]; C. albicans 6): 36.0 mm; Diameters of the inhibition rings (including 6.0 mm of the disk) (C. albicans [2]; C. albicans 7): 44.0 mm; Diameters of the inhibition rings (including 6.0 mm of the disk) (C. albicans [2]; C. albicans 8): 41.0 mm; Diameters of the inhibition rings (including 6.0 mm of the disk) (C. albicans [2]; C. albicans 9): 34.0 mm; Diameters of the inhibition rings (including 6.0 mm of the disk) (C. albicans [2]; C. albicans 10): 34.5 mm; Diameters of the inhibition rings (including 6.0 mm of the disk) (C. albicans [2]; C. albicans 11): 34.0 mm; Diameters of the inhibition rings (including 6.0 mm of the disk) (C. albicans [2]; C. albicans 12): 34.0 mm; Diameters of the inhibition rings (including 6.0 mm of the disk) (C. albicans [2]; C. albicans 13): 35.0 mm; Diameters of the inhibition rings (including 6.0 mm of the disk) (C. albicans [2]; C. albicans 14): 34.0 mm; Diameters of the inhibition rings (including 6.0 mm of the disk) (C. albicans [2]; C. albicans 15): 34.0 mm; MFC (C. lusitaniae [3]): 0.064 % v/v; MIC (C. lusitaniae [3]): 0.032 % v/v; Diameters of the inhibition rings (including 6.0 mm of the disk) (C. lusitaniae [4]): 43.0 mm; MFC average (Candida spp. [5]): 0.067 % v/v; MIC average (Candida spp. [5]): 0.043 % v/v; inhibition rings diameter, average (including 6.0 mm of the disk) (Candida spp. [6]; [7]): 35.2 mm; inhibition rings diameter, range (including 6.0 mm of the disk) (Candida spp. [6]; [7]): 30.5-41 mm; inhibition of the tested Candida strains (words) (Candida spp. [6]; [8]): inhibited the growth of all tested Candida strains; inhibition rings compared with those caused by amphotericin B (10 μg) (Candida spp. [6]; [8]): notably greater; % inhibited strains (Candida spp. [6]; ring equal or greater than that of amphotericin B, 18 strains): 100% (18/18); MFC (C. glabrata; C. glabrata 1): 0.032 % v/v; MIC (C. glabrata; C. glabrata 1): 0.032 % v/v; MFC (C. glabrata; C. glabrata 2): 0.125 % v/v; MIC (C. glabrata; C. glabrata 2): 0.125 % v/v
